Data reported in ChEMBL document CHEMBL6109155, “Discovery of Phenylacylpiperidine as Novel sEH Inhibitors through Scaffold Hopping of Natural Stilbene” (J Med Chem, 2025).

Key:
Cytochrome P450 3A4 = Cytochrome P450 3A4 (Homo sapiens, UniProt P08684); experiment: Inhibition of CYP3A4 in human liver microsomes preincubated for 10 mins followed by NADPH addition measured after 3.5 mins by LC-MS/MS analysis; type: ADME, Microsome
[1] = Cmax in Sprague-Dawley rat at 5 mg/kg, iv measured for 24 hrs; type: ADME, organism-based; conditions: in vivo
[2] = In vivo inhibition of pancreatic sEH in CD-1 mouse model of cerulein-induced acute pancreatitis 10 mg/kg, ip drug administered at 30 mins and 2.5 hrs post-first cerulein injection and measured after 6 hrs post-first cerulein injection; type: functional; conditions: time 3.5-5.5 hrs
[3] = Oral bioavailability in Sprague-Dawley rat at 20 mg/kg measured for 24 hrs; type: ADME, organism-based; conditions: in vivo
Mus musculus [4] = experiment: Anti-inflammatory activity in BALB/c mouse model of carrageenan-induced paw edema assessed as inhibition of paw swelling at 20 mg/kg, po measured for 0.5 hrs relative to control; type: functional; conditions: Mus musculus, BALB/c
Mus musculus [5] = experiment: Anti-inflammatory activity in BALB/c mouse model of carrageenan-induced paw edema assessed as inhibition of paw swelling at 10 mg/kg, po measured after 6 hrs relative to control; type: functional

Sequence of Cytochrome P450 3A4 (P08684 whole entry): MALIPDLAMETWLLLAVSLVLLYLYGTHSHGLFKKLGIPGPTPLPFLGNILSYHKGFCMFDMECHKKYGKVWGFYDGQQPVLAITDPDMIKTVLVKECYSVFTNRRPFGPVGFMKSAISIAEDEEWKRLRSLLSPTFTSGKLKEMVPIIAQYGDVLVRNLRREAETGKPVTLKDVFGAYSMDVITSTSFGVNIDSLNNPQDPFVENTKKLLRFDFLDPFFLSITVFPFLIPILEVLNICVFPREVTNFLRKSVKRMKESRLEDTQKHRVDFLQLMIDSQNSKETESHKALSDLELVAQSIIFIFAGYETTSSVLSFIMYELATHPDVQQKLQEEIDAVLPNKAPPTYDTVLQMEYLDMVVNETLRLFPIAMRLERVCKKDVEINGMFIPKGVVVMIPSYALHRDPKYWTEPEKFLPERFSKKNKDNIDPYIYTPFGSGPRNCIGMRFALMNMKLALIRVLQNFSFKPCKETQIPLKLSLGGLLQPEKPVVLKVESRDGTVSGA

## COc1cc(CC(=O)N2CCC(NC(=O)NCc3ccc(OC(F)(F)F)cc3)CC2)cc(OC)c1
Cytochrome P450 3A4
  IC50: 22.9 µM
[1]
  Cmax: 3120 ng/mL
[2]
  inhibition in vivo at 10 mg/kg: 44.7%
[3]
  bioavailability: 8.3%
Mus musculus [4]
  inhibition in vivo at 20 mg/kg: 29.5%
Mus musculus [5]
  inhibition in vivo at 10 mg/kg: 20.8%
